Source: the supplement of paper PMC10627819

Columns and labels:
B. subtilis 168 [1] = assay: fitness (endpoint OD595 vs no drug) (fraction); higher = more growth
How it was run: (§1)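 In 384-well plates at 37 °C, cultures began at OD595 0.01 in 30 µl, with 55 µl used for S. pneumoniae. OD595 readings every 30 min for 14 h were corrected by the first reading. Fitness divides the stationary-phase transition optical density by the robust mean of no-drug control wells. The result is capped at 1.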

S. pneumoniae D39V [2] = assay: as above
How it was run: as §1

S. aureus Newman [3] = assay: as above
How it was run: as §1

S. aureus DSM 20231 = assay: Bliss interaction score (quartile over a dose matrix) (fitness difference); higher = more antagonism (negative = synergy)
How it was run: (§2)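 Each OD595 reading at entry into stationary phase was scaled to the robust mean of the untreated wells on its plate, with a ceiling of 1. These ratios define fitness, and single-drug fitness was inferred from combinations. The Bliss score compares observed fitness with the product-based expectation and is reported as quartiles across all replicate types, technical, biological and donor/recipient.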

B. subtilis 168 [4] = assay: as above
How it was run: as §2

S. pneumoniae D39V [5] = assay: as above
How it was run: as §2

S. aureus Newman [6] = assay: as above
How it was run: as §2
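Wherever Bliss interaction score (quartile over a dose matrix) is given: first quartile when negative (synergy) and third quartile when positive (antagonism).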
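Wherever fitness (endpoint OD595 vs no drug) is given: OD595 on entry to stationary phase over no-drug wells; at most 1.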

CNC(C)C1CCC(N)C(OC2C(N)CC(N)C(OC3OCC(C)(O)C(NC)C3O)C2O)O1 (stereo not given) [Gentamicin] + Cc1onc(-c2ccccc2)c1C(=O)N[C@@H]1C(=O)N2[C@@H]1SC(C)(C)[C@@H]2C(=O)O [Oxacillin]
main component drawn
Details | fitness
B. subtilis 168 [1], first compound 0.0625 µg/mL, partner 0.002 µg/mL | 0.899
B. subtilis 168 [1], first compound 0.0625 µg/mL, partner 0.004 µg/mL | 0.82
B. subtilis 168 [1], first compound 0.125 µg/mL, partner 0.002 µg/mL | 0.275
B. subtilis 168 [1], first compound 0.125 µg/mL, partner 0.004 µg/mL | 0.0851
B. subtilis 168 [1], first compound 0.125 µg/mL, partner 0.008 µg/mL | 0.0748
B. subtilis 168 [1], first compound 0.25 µg/mL, partner 0.002 µg/mL | 0.0462
B. subtilis 168 [1], first compound 0.25 µg/mL, partner 0.004 µg/mL | 0.0441
B. subtilis 168 [1], first compound 0.25 µg/mL, partner 0.008 µg/mL | 0.0454
S. aureus Newman [3], first compound 0.5 µg/mL, partner 0.0156 µg/mL | 0.82
S. aureus Newman [3], first compound 0.5 µg/mL, partner 0.0312 µg/mL | 0.782
S. aureus Newman [3], first compound 0.5 µg/mL, partner 0.0625 µg/mL | 0.672
S. aureus Newman [3], first compound 1 µg/mL, partner 0.0156 µg/mL | 0.851
S. aureus Newman [3], first compound 1 µg/mL, partner 0.0312 µg/mL | 0.776
S. aureus Newman [3], first compound 1 µg/mL, partner 0.0625 µg/mL | 0.765
S. aureus Newman [3], first compound 2 µg/mL, partner 0.0156 µg/mL | 0.901
S. aureus Newman [3], first compound 2 µg/mL, partner 0.0625 µg/mL | 0.666
S. pneumoniae D39V [2], first compound 2 µg/mL, partner 0.005 µg/mL | 0.985
S. pneumoniae D39V [2], first compound 2 µg/mL, partner 0.01 µg/mL | 0.995
S. pneumoniae D39V [2], first compound 2 µg/mL, partner 0.02 µg/mL | 0.953
S. pneumoniae D39V [2], first compound 2 µg/mL, partner 0.04 µg/mL | 0.55
S. pneumoniae D39V [2], first compound 4 µg/mL, partner 0.005 µg/mL | 0.999
S. pneumoniae D39V [2], first compound 4 µg/mL, partner 0.01 µg/mL | 0.982
S. pneumoniae D39V [2], first compound 4 µg/mL, partner 0.02 µg/mL | 0.947
S. pneumoniae D39V [2], first compound 4 µg/mL, partner 0.04 µg/mL | 0.549
S. pneumoniae D39V [2], first compound 8 µg/mL, partner 0.005 µg/mL | 0.963
S. pneumoniae D39V [2], first compound 8 µg/mL, partner 0.01 µg/mL | 0.985
S. pneumoniae D39V [2], first compound 8 µg/mL, partner 0.02 µg/mL | 0.939
S. pneumoniae D39V [2], first compound 8 µg/mL, partner 0.04 µg/mL | 0.553

fitness, one replicate, main component drawn
Details | partner 0.0078 µg/mL | partner 0.0155 µg/mL | partner 0.0156 µg/mL | partner 0.031 µg/mL | partner 0.0312 µg/mL | partner 0.0625 µg/mL | partner 0.075 µg/mL | partner 0.15 µg/mL | partner 0.3 µg/mL
B. subtilis 168 [1], first compound 0.0625 µg/mL | ≥ 1 | 0.976 | – | 0.948 | – | – | 0.663 | 0.033 | 0.0409
B. subtilis 168 [1], first compound 0.125 µg/mL | 0.923 | 0.907 | – | 0.92 | – | – | 0.0517 | 0.0783 | 0.0465
B. subtilis 168 [1], first compound 0.25 µg/mL | 0.265 | 0.218 | – | 0.171 | – | – | 0.0546 | 0.0554 | 0.0541
S. aureus Newman [3], first compound 0.375 µg/mL | – | – | 0.785 | – | 0.736 | 0.648 | – | – | –
S. aureus Newman [3], first compound 0.75 µg/mL | – | – | 0.741 | – | 0.709 | 0.632 | – | – | –
S. aureus Newman [3], first compound 1.5 µg/mL | – | – | 0.581 | – | 0.106 | 0.113 | – | – | –

main component drawn
Details | Bliss interaction score
B. subtilis 168 [4] | -0.0859
S. aureus DSM 20231 | 0.0545
S. aureus Newman [6] | 0.0666
S. pneumoniae D39V [5] | 0.104

CNC(C)C1CCC(N)C(OC2C(N)CC(N)C(OC3OCC(C)(O)C(NC)C3O)C2O)O1 (stereo not given) [Gentamicin] + CN[C@@H]1[C@H](O)[C@H](NC)[C@H]2O[C@@]3(O)C(=O)C[C@@H](C)O[C@H]3O[C@@H]2[C@H]1O [Spectinomycin]
fitness, main component drawn
Details | partner 2 µg/mL | partner 4 µg/mL | partner 8 µg/mL | partner 16 µg/mL
B. subtilis 168 [1], first compound 0.0625 µg/mL | 0.951 | 0.988 | 0.814 | –
B. subtilis 168 [1], first compound 0.25 µg/mL | 0.325 | 0.148 | – | –
S. aureus Newman [3], first compound 0.375 µg/mL | – | 0.915 | 0.984 | 0.961
S. aureus Newman [3], first compound 0.5 µg/mL | – | 0.931 | 0.966 | 0.891
S. aureus Newman [3], first compound 0.75 µg/mL | – | 0.928 | ≥ 1 | 0.95
S. aureus Newman [3], first compound 1 µg/mL | – | 0.993 | 0.991 | 0.933
S. aureus Newman [3], first compound 1.5 µg/mL | – | 0.923 | ≥ 1 | 0.96
S. aureus Newman [3], first compound 2 µg/mL | – | ≥ 1 | ≥ 1 | –
S. pneumoniae D39V [2], first compound 2 µg/mL | – | 0.964 | 0.901 | 0.663
S. pneumoniae D39V [2], first compound 4 µg/mL | – | 0.914 | 0.807 | 0.643
S. pneumoniae D39V [2], first compound 8 µg/mL | – | 0.957 | 0.879 | 0.645

fitness, S. aureus Newman [3], one replicate, main component drawn
Details | first compound 1 µg/mL | first compound 2 µg/mL | first compound 4 µg/mL
partner 16 µg/mL | – | – | 0.0712
partner 32 µg/mL | 0.507 | 0.101 | 0.0361
partner 64 µg/mL | 0.0654 | 0.0856 | 0.0746

main component drawn
Details | Bliss interaction score
B. subtilis 168 [4] | 0.0812
S. aureus DSM 20231 | 0.044
S. aureus Newman [6] | 0.0532
S. pneumoniae D39V [5] | 0.0871

CC1=C(C(=O)O)N2C(=O)[C@@H](NC(=O)[C@H](N)c3ccccc3)[C@H]2SC1 [Cephalexin] + CN[C@@H]1[C@H](O)[C@H](NC)[C@H]2O[C@@]3(O)C(=O)C[C@@H](C)O[C@H]3O[C@@H]2[C@H]1O [Spectinomycin]
fitness
Details | first compound 0.125 µg/mL | first compound 0.25 µg/mL | first compound 0.5 µg/mL | first compound 1 µg/mL
B. subtilis 168 [1], partner 2 µg/mL | ≥ 1 | 0.933 | 0.978 | –
B. subtilis 168 [1], partner 4 µg/mL | 0.981 | 0.978 | ≥ 1 | –
B. subtilis 168 [1], partner 8 µg/mL | 0.905 | 0.928 | 0.884 | –
S. aureus Newman [3], partner 4 µg/mL | – | 0.904 | 0.951 | 0.951
S. aureus Newman [3], partner 8 µg/mL | – | 0.982 | ≥ 1 | ≥ 1
S. aureus Newman [3], partner 16 µg/mL | – | 0.949 | 0.957 | ≥ 1

fitness, one replicate
Details | first compound 0.125 µg/mL | first compound 0.25 µg/mL | first compound 0.5 µg/mL | first compound 1 µg/mL | first compound 2 µg/mL | first compound 4 µg/mL
S. aureus Newman [3], partner 16 µg/mL | – | – | – | – | 0.969 | –
S. aureus Newman [3], partner 32 µg/mL | – | – | 0.681 | 0.713 | 0.651 | –
S. aureus Newman [3], partner 64 µg/mL | – | – | 0.127 | 0.071 | 0.1 | –
S. pneumoniae D39V [2], partner 4 µg/mL | 0.874 | 0.91 | 0.993 | 0.474 | 0.0025 | 0
S. pneumoniae D39V [2], partner 8 µg/mL | 0.892 | 0.884 | 0.908 | 0.587 | 0.0549 | 0.0577
S. pneumoniae D39V [2], partner 16 µg/mL | 0.875 | 0.82 | 0.859 | – | – | –

Details | Bliss interaction score
B. subtilis 168 [4] | 0.0659
S. aureus DSM 20231 | 0.0503
S. aureus Newman [6] | 0.0839
S. pneumoniae D39V [5] | 0.0578

CC1=C(C(=O)O)N2C(=O)[C@@H](NC(=O)[C@H](N)c3ccccc3)[C@H]2SC1 [Cephalexin] + CN1C2=CC=CC=C2N=C3C1=CC=CC3=O [Pyocyanin]
fitness
Details | first compound 0.125 µg/mL | first compound 0.25 µg/mL | first compound 0.5 µg/mL | first compound 1 µg/mL
B. subtilis 168 [1], partner 1.25 µg/mL | 0.923 | 0.916 | 0.881 | –
B. subtilis 168 [1], partner 2.5 µg/mL | 0.874 | 0.836 | 0.823 | –
B. subtilis 168 [1], partner 5 µg/mL | 0.719 | 0.686 | 0.679 | –
S. aureus Newman [3], partner 1.25 µg/mL | – | 0.928 | 0.92 | 0.823
S. aureus Newman [3], partner 2.5 µg/mL | – | 0.905 | 0.892 | –
S. aureus Newman [3], partner 5 µg/mL | – | 0.604 | 0.559 | –

fitness, S. pneumoniae D39V [2], one replicate
Details | first compound 0.125 µg/mL | first compound 0.25 µg/mL | first compound 0.5 µg/mL | first compound 1 µg/mL | first compound 2 µg/mL | first compound 4 µg/mL
partner 0.325 µg/mL | 0.976 | ≥ 1 | ≥ 1 | 0.817 | 0.328 | 0.0365
partner 0.65 µg/mL | 0.933 | ≥ 1 | ≥ 1 | 0.891 | 0.65 | 0.158
partner 1.3 µg/mL | 0.762 | 0.805 | 0.822 | – | – | –

Details | Bliss interaction score
B. subtilis 168 [4] | -0.0454
S. aureus DSM 20231 | 0.0604
S. aureus Newman [6] | 0.0862
S. pneumoniae D39V [5] | 0.0919
